In patent US20070269384A1, “Use of perfluoroalkyl-containing metal complexes as contrast media for diagnosis of Alzheimer's disease” (priority 2006, published 2007):

Experiments:
[1] = Hydrodynamic micelle diameter 2 Rh by photon-correlation spectroscopy; format: physicochemical
Text: The amphiphilic compounds according to the invention are combined in solution and are present as aggregates. The size (2 Rh) of such aggregates (e.g., micelles, rods, oblates, etc.) can be determined with the aid of photon-correlation spectroscopy (PCS).
As a second criterion for preferably usable metal complexes, therefore, the hydrodynamic micelle diameter 2 Rh, which must be >1 nm, is used. Those perfluoroalkyl-containing metal complexes, whose 2 Rh≧3 nm, quite especially preferably >4 nm, are especially suitable according to the invention.
(§1) Both the determination of CMC and the photon correlation spectroscopy are described in H.-D. Dorfler, “Grenzflächen- and Kolloidchemie [Interface and Colloid Chemistry],” Weinheim, New York, Basel, Cambridge, Tokyo, VSH 1994.

[2] = Proton relaxivity R1 in bovine plasma (Minispec P 20); format: physicochemical; conditions: in plasma at 40° C., magnetic field strength 0.47 Tesla
Procedure: As a third criterion for especially suitable MR contrast media, the proton relaxivity (relaxivity) in plasma (R1) at 40° C. and a field strength of 0.47 Tesla is used. The relaxivity, which is indicated in [l/mmol*s], is the quantitative measurement for the shortening of the relaxation time T1 of the protons. For the purpose according to the invention, the relaxivity must be as high as possible and must be >10 l/mmol*s, preferably >13 l/mmol*s, especially preferably >15 l/mmol*s.
The relaxivity R1 [l/mmol*s] of the MR contrast media according to the invention was determined with the Minispec P 20 device of the Bruker Company. The measurements were made at 40° C. and a field strength of 0.47 Tesla. 8 measuring points were recorded in each T1 sequence (180°-T1-90°, inversion recovery). As a medium, bovine plasma of the Kraeber Company was used. The contrast medium concentrations [mmol/l] in the preparations were between 0.30 and 1.16.

[3] = Critical micelle formation concentration (CMC) by tensiometry; format: physicochemical
Procedure: In aqueous systems, these amphiphilic molecules show the properties that are characteristic of standard surfactants (such as, e.g., sodium dodecyl sulfate, SDS). Thus, they reduce the surface tension of the water. By tensiometry, the so-called CMC (critical micelle formation concentration in mol/l) can be determined. To this end, the surface tension is determined based on the concentration of the substance to be measured. The CMC can be calculated from the course of the surface tension (c) function that is obtained. The critical micelle formation concentration of the compounds according to the invention should be <10^−3 mol/l, preferably <10^−4 mol/l.
as §1

amyloid plaques = assay: MRT visualization of Alzheimer lesions after intravenous administration in APP-23 mice; format: in vivo; conditions: 0.5 mmol of Gd/kg i.v., up to 60 minutes after administration, 7T, localization confirmed by Puchtler's Congo red stain
Procedure: MRT Visualization of Alzheimer Lesions After Intravenous Administration of Contrast Medium in APP-23 Mice
The images of FIG. 1 show MR images of the brain before as well as up to 60 minutes after intravenous administration of 0.5 mmol of Gd/kg of body weight of metal complex 13 (MK13) in APP-23 mice (mice with genetically-induced Alzheimer's disease). […] The localization of the amyloid-containing structures was confirmed by means of Puchtler's Congo red stain. With this test, the suitability of the compounds according to the invention as in-vivo markers for amyloid plaques in the brains of mice with Alzheimer's disease could be shown.

Molecule: gadolinium complex of 1,4,7-tris{1,4,7-tris(N-(carboxylatomethyl)-10-[N-1-methyl-3,6-diaza-2,5,8-trioxooctane-1,8-diyl)]-1,4,7,10-tetraazacyclododecane, Gd complex}-10-[N-2H, 2H, 4H, 4H, 5H, 5H-3-oxa-perfluoro-tridecanoyl]-1,4,7,10-tetraazacyclododecane [MK 12]
- 2 Rh (Hydrodynamic Micelle Diameter) [1]: 2.2 nm
- R1 (Relaxivity) [2]: 19.5 L/mmol/s
- CMC (Critical Micelle Formation Concentration) [3]: 0.00089 mol/L

Molecule: CC(C(=O)NCC(=O)NCCCC[C@H](NC(=O)CO[C@H]1O[C@H](CO)[C@@H](O)[C@H](O)[C@@H]1O)C(=O)N1CCN(S(=O)(=O)C(F)(F)C(F)(F)C(F)(F)C(F)(F)C(F)(F)C(F)(F)C(F)(F)C(F)(F)F)CC1)N1CCN(CC(=O)[O-])CCN(CC(=O)[O-])CCN(CC(=O)[O-])CC1.[Gd+3] (stereo partly drawn) [MK 13, gadolinium complex of 6-N-[1,4,7-tris(carboxylatomethyl)-1,4,7,10-tetraazacyclododecane-10-N-(pentanoyl-3-aza-4-oxo-5-methyl-5-yl)]-2-N-[1-O-α-D-carbonylmethyl-manno-pyranose]-L-lysine-[1-(4-perfluorooctylsulfonyl)-piperazine]-amide]
- 2 Rh (Hydrodynamic Micelle Diameter) [1]: 4.4 nm
- R1 (Relaxivity) [2]: 15.9 L/mmol/s
- CMC (Critical Micelle Formation Concentration) [3]: 2.5e-06 mol/L
- MR signal in the amyloid plaques of the diseased brains (T1-weighted spin echo images) (amyloid plaques): strong signal increase
